Laboratory results from publication PMC4380750 (Bioorganic & medicinal chemistry, 2015).

Columns and labels:
KOR [1] = details: electrically stimulated guinea pig ileal longitudinal muscle; cited from earlier work
KOR [2] = details: binding affinity; cited from earlier work
MOR [3] = target: T1, MOR (Mus musculus, UniProt P42866); test: biochemical; details: for Emax: read-out: MOR [35S]GTPγS Binding %Emax of DAMGO; for less potent than naltrexone in the MOR [35S]GTPγS binding assay: EC50 compared with naltrexone
MOR [4] = target: T1, MOR; assay type: binding
DOR [5] = target: T2, DOR (Mus musculus, UniProt P32300); test: DOR [35S]GTPγS binding functional assay; assay type: biochemical; details: vs naltrexone
hMOR = hMOR (Homo sapiens, UniProt P35372); test: Ca2+ flux assay in Gαqi5 transfected hMOR-CHO cells; assay type: cell-based; details: for agonism, increase of intracellular Ca2+ level: agonism study, compared to DAMGO
KOR [6] = target: KOR (Mus musculus, UniProt P33534); test: KOR [35S]GTPγS binding functional assay; assay type: biochemical
Swiss-Webster mice [7] = test: Warm-water tail immersion assay, agonism study; assay type: in vivo, mouse
DOR [8] = target: T2, DOR; test: Radioligand competition binding assay, [3H]naltrindole, mDOR-CHO cell membranes; details: ratio of Ki values, MOR vs DOR
Swiss-Webster mice [9] = test: Opioid withdrawal assays in chronic morphine-pelleted mice; assay type: in vivo, mouse
[10] = 1 mg/kg s.c., morphine-pelleted mice, counted over 20 min

Chain of hMOR (P35372 whole entry): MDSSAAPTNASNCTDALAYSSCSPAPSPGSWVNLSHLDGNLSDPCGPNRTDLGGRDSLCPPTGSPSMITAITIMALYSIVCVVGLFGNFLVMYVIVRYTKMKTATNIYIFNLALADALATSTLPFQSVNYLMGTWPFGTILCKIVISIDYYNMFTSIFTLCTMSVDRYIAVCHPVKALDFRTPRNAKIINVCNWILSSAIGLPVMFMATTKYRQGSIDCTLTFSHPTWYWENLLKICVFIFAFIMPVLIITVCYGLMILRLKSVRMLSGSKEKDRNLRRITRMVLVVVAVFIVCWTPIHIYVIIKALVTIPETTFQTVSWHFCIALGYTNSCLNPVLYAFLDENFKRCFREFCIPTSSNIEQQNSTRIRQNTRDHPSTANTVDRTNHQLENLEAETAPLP
T2 sequence (P32300 whole entry): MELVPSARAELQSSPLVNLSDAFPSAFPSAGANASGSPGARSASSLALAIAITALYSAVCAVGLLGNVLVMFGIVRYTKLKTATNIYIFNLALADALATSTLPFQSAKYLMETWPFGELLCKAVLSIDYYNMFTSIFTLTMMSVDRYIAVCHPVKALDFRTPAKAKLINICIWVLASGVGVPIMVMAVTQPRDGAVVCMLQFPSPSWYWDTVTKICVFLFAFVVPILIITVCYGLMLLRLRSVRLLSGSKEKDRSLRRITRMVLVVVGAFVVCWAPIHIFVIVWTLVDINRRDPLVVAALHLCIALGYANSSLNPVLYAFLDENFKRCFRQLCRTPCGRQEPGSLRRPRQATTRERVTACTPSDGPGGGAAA
Chain of KOR (Mus musculus, UniProt P33534) (P33534 whole entry): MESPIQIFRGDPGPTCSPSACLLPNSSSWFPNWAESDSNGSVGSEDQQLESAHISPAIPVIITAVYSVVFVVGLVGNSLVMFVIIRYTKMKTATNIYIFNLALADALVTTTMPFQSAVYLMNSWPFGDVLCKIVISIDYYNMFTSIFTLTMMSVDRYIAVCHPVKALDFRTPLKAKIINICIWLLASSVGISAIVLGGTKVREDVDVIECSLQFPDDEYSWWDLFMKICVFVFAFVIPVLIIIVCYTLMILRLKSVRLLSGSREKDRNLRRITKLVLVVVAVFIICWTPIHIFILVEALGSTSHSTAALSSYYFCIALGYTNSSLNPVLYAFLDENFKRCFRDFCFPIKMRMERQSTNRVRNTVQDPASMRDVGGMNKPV
T1 sequence (P42866 whole entry): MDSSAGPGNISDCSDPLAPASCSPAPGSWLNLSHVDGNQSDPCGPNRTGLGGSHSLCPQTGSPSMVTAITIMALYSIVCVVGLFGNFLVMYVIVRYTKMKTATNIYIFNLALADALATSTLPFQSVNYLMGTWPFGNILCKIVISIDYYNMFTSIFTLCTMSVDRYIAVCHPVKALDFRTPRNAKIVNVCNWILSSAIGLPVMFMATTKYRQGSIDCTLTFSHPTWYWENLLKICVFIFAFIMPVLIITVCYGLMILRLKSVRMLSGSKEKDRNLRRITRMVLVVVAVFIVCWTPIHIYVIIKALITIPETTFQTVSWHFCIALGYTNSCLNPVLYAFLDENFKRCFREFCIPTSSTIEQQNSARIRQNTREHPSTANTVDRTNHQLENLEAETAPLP

SMILES: NC(N)=Nc1ccc2[nH]c3c(c2c1)C[C@@]1(O)[C@H]2Cc4ccc(O)c5c4[C@@]1(CCN2CC1CC1)[C@H]3O5 [5’-GNTI, 5’-guanidinonaltrindole]
- functional activity at KOR (KOR [1]): KOR antagonist
- 5’-GNTI more potent than 6’-GNTI at the KOR (KOR [2]): 8 fold

SMILES: NC(N)=Nc1ccc2c3c([nH]c2c1)[C@@H]1Oc2c(O)ccc4c2[C@@]12CCN(CC1CC1)[C@H](C4)[C@]2(O)C3 [6’-GNTI]
- functional activity at KOR (KOR [1]): KOR full agonist

SMILES: O=C(Cc1cc2ccccc2cn1)N[C@H]1CC[C@@]2(O)[C@H]3Cc4ccc(O)c5c4[C@@]2(CCN3CC2CC2)[C@H]1O5 [Compound 1, 17-Cyclopropylmethyl-3,14β-dihydroxy-4,5α-epoxy-6α-[2-(isoquinolin-3-yl)acetamido)morphinan]
- Emax (MOR [3]): 18.6 ± 1.1%

SMILES: O=C(CCc1cc2ccccc2cn1)N[C@H]1CC[C@@]2(O)[C@H]3Cc4ccc(O)c5c4[C@@]2(CCN3CC2CC2)[C@H]1O5 [Compound 2, 17-Cyclopropylmethyl-3,14β-dihydroxy-4,5α-epoxy-6α-[3-(isoquinolin-3-yl)propanamido)morphinan]
- Emax (MOR [3]): 27.4 ± 0.35%

SMILES: O=C(CNC(=O)c1cc2ccccc2cn1)N[C@H]1CC[C@@]2(O)[C@H]3Cc4ccc(O)c5c4[C@@]2(CCN3CC2CC2)[C@H]1O5 [Compound 3, 17-Cyclopropylmethyl-3,14β-dihydroxy-4,5α-epoxy-6α-[2-(isoquinoline-3-carboxamido)acetamido}morphinan]
- Emax (MOR [3]): < 15%

SMILES: COc1c(C(=O)N[C@H]2CC[C@@]3(O)[C@H]4Cc5ccc(O)c6c5[C@@]3(CCN4CC3CC3)[C@H]2O6)nc(Cl)c2ccccc12 [Compound 4, 17-Cyclopropylmethyl-3,14β-dihydroxy-4,5α-epoxy-6α-(1-chloro-4-methoxyisoquinoline-3-carboxamido)morphinan]
- 4 more potent than 11 in the radioligand competition binding assay (MOR [4]): about 10 fold
- DOR [35S]GTPγS potency, less potent compared to naltrexone (DOR [5]): 7- to 25 fold
- agonism, increase of intracellular Ca2+ level (hMOR): did not show any significant agonist activity
- higher potency of 4 to 11 in Ca2+ flux antagonism study (hMOR; vs compound 11): 100 fold
- Emax (KOR [6]; read-out: KOR [35S]GTPγS Binding % Emax of U50,488): 7.1 ± 0.5%
- difference between the potencies of 4 and morphine in the MOR [35S]GTPγS binding assay (MOR [3]): ~70 fold
- % MPE, intrinsic antinociceptive effect (Swiss-Webster mice [7]; 10 mg/kg s.c., 20 min after injection, mice, 56 °C): full agonist
- difference between the potencies of 4 and morphine in the tail immersion assay (Swiss-Webster mice [7]; vs morphine): ~9 fold

SMILES: O=C(N[C@H]1CC[C@@]2(O)[C@H]3Cc4ccc(O)c5c4[C@@]2(CCN3CC2CC2)[C@H]1O5)c1nc(Cl)c2ccccc2c1O [Compound 5, 17-Cyclopropylmethyl-3,14β-dihydroxy-4,5α-epoxy-6α-(1-chloro-4-hydroxyisoquinoline-3-carboxamido)morphinan]
- Selectivity δ/µ (DOR [8]): > 15
- Emax (MOR [3]): 19.8 ± 0.8%

SMILES: O=C(N[C@H]1CC[C@@]2(O)[C@H]3Cc4ccc(O)c5c4[C@@]2(CCN3CC2CC2)[C@H]1O5)c1ncc2ccccc2c1O [Compound 6, 17-Cyclopropylmethyl-3,14β-dihydroxy-4,5α-epoxy-6α-(4-hydroxyisoquinoline-3-carboxamido)morphinan]
- Emax (MOR [3]): 20.5 ± 0.9%

SMILES: O=C(N[C@H]1CC[C@@]2(O)[C@H]3Cc4ccc(O)c5c4[C@@]2(CCN3CC2CC2)[C@H]1O5)c1ncc2ccccc2n1 [Compound 7, 17-Cyclopropylmethyl-3,14β-dihydroxy-4,5α-epoxy-6α-(4-quinazoline-2-carboxamido)morphinan]
- Emax (MOR [3]): 21.6 ± 0.8%

SMILES: N#Cc1nc(C(=O)N[C@H]2CC[C@@]3(O)[C@H]4Cc5ccc(O)c6c5[C@@]3(CCN4CC3CC3)[C@H]2O6)cc2ccccc12 [Compound 9, 17-Cyclopropylmethyl-3,14β-dihydroxy-4,5α-epoxy-6α-(1-cyanoisoquinoline-3-carboxamido)morphinan]
- Emax (MOR [3]): 37.5 ± 0.7%

SMILES: Cc1nc(C(=O)N[C@H]2CC[C@@]3(O)[C@H]4Cc5ccc(O)c6c5[C@@]3(CCN4CC3CC3)[C@H]2O6)cc2ccccc12 [Compound 10, 17-Cyclopropylmethyl-3,14β-dihydroxy-4,5α-epoxy-6α-(1-methylisoquinolin-3-carboxamido)morphinan]
- Emax (MOR [3]): 22.2 ± 0.4%

SMILES: O=C(N[C@H]1CC[C@@]2(O)[C@H]3Cc4ccc(O)c5c4[C@@]2(CCN3CC2CC2)[C@H]1O5)c1cc2cc([N+](=O)[O-])ccc2cn1 [Compound 11, 17-Cyclopropylmethyl-3,14β-dihydroxy-4,5α-epoxy-6α-(6-nitroisoquinoline-3-carboxamido)morphinan]
- DOR [35S]GTPγS potency, less potent compared to naltrexone (DOR [5]): 7- to 25 fold
- agonism, increase of intracellular Ca2+ level (hMOR): no apparent agonism
- KOR [35S]GTPγS potency, lower than that of NAQ (KOR [6]; vs NAQ): ~6 fold
- KOR [35S]GTPγS potency, less potent than naltrexone (KOR [6]; vs naltrexone): ~80 fold
- less potent than naltrexone in the MOR [35S]GTPγS binding assay (MOR [3]): ≥ 200 fold
- withdrawal symptoms in placebo-pelleted mice (Swiss-Webster mice [9]; 30 mg/kg s.c., placebo-pelleted mice): did not induce any significant withdrawal symptoms
- escape jumps in morphine-pelleted mice, dose dependence (Swiss-Webster mice [9]; s.c., doses up to 100 mg/kg, plateau at 100 mg/kg): did not precipitate significant jumps in morphine-pelleted mice until 30 mg/kg
- wet-dog shakes in morphine-pelleted mice compared to naltrexone (Swiss-Webster mice [9]; s.c., doses up to 100 mg/kg, vs naltrexone 1 mg/kg): significantly less wet-dog shakes

SMILES: O=C(N[C@H]1CC[C@@]2(O)[C@H]3Cc4ccc(O)c5c4[C@@]2(CCN3CC2CC2)[C@H]1O5)c1cc2ccc([N+](=O)[O-])cc2cn1 [Compound 12, 17-Cyclopropylmethyl-3,14β-dihydroxy-4,5α-epoxy-6α-(7-nitroisoquinoline-3-carboxamido)morphinan]
- less potent than naltrexone in the MOR [35S]GTPγS binding assay (MOR [3]): ≥ 200 fold

SMILES: CN(C)c1ccc2cc(C(=O)N[C@H]3CC[C@@]4(O)[C@H]5Cc6ccc(O)c7c6[C@@]4(CCN5CC4CC4)[C@H]3O7)ncc2c1 [Compound 13, 17-Cyclopropylmethyl-3,14β-dihydroxy-4,5α-epoxy-6α-(7-dimethylaminoisoquinoline-3-carboxamido)morphinan]
- Selectivity δ/µ (DOR [8]): > 15

SMILES: COc1cc2cnc(C(=O)N[C@H]3CC[C@@]4(O)[C@H]5Cc6ccc(O)c7c6[C@@]4(CCN5CC4CC4)[C@H]3O7)cc2cc1OC [Compound 14, 17-Cyclopropylmethyl-3,14β-dihydroxy-4,5α-epoxy-6α-(6,7-dimethoxyisoquinoline-3-carboxamido)morphinan]
- less potent than naltrexone in the MOR [35S]GTPγS binding assay (MOR [3]): ≥ 200 fold

SMILES: CN1Cc2ccccc2C[C@H]1C(=O)N[C@H]1CC[C@@]2(O)[C@H]3Cc4ccc(O)c5c4[C@@]2(CCN3CC2CC2)[C@H]1O5 [Compound 15, 17-Cyclopropylmethyl-3,14β-dihydroxy-4,5α-epoxy-6α-[(S)-(2-methyl-1,2,3,4-tetrahydroisoquinoline-3-carboxamido)]morphinan]
- Emax (MOR [3]): 24.8 ± 1.3%

SMILES: O=C(N[C@H]1CC[C@@]2(O)[C@H]3Cc4ccc(O)c5c4[C@@]2(CCN3CC2CC2)[C@H]1O5)c1cc2ccccc2cn1 [NAQ, 17-cyclopropylmethyl-3,14β-dihydroxy-4,5α-epoxy-6α-(isoquinoline-3′-carboxamido)morphinan, reference compound]
- DOR [35S]GTPγS potency, less potent compared to naltrexone (DOR [5]): 7- to 25 fold

SMILES: O=C1CC[C@@]2(O)[C@H]3Cc4ccc(O)c5c4[C@@]2(CCN3CC2CC2)[C@H]1O5 [NTX, naltrexone, reference compound]
- escape jumps (Swiss-Webster mice [9]; [10]): 30.0 ± 12.1 times
- wet-dog shakes (Swiss-Webster mice [9]; [10]): 14.8 ± 2.2 times
